Legend:
Assay in all cases: Cell viability (CellTiter-Glo)
Type in all cases: cell-based
[1] = system: Ba/F3 cells expressing EGFR_G724S; settings: Mus musculus, BaF3; 72 hours; average ± standard deviation; read-out: Absolute EC50 (50% growth)
Experimental: (§1) A cell-based assay was used to evaluate the potency of Compound I on cells where the growth of the cells is either driven by EGFR wild type (WT) or cells comprising atypical mutant EGFR proteins. Cell viability was assessed following treatment with compounds and the assay developed with CellTiterGlo (CTG) reagent that measures ATP levels in cells. Compound I was dissolved in DMSO to generate a 10 mM stock solution. Dosing solutions were prepared by serial dilution in DMSO followed by dilution in complete media to result in a 0.4% DMSO in the assay. Ba/F3 cells expressing EGFR mutants EGFR_G719S, EGFR_G724S, EGFR_L718Q, EGFR_L718V, EGFR_L858R/1L718Q, EGFR_L858R/1L718V, EGFR_del19/L792K. EGFR_del19/G796S were generated following co-transfection of the EGFR mutant of interest with PhiC31 integrase. Two days following transfection, the media was changed and replaced with media lacking mIL3 with the addition of human EGF (hEGF) as well as puromycin to select stable cell lines. After the cell lines were established genomic DNA (gDNA) was extracted to confirm the sequence of the construct of interest. The culture Media for Ba/F3 EGFR mutants was RPMI+10% FBS+2 mM L-Glut±10 ng/ml hEGF+0.5 pig/ml puromycin. The following reagents were used to conduct the assays: RPMI1640 with phenol red (Corning, Cat #: 15-040-CV); Fetal Bovine Serum (FBS) (Omega Scientific, Cat #: FR-11); Human Epidermal Growth Factor (hEGF) (Cell Signaling Cat #8916SC); L-Glutamine (Corning, Cat #: 25-005-CI); Puromycin (Gibco, Cat #A11138-03); assay media was the same as culture medium; CellTiter-Glo® 2.0 Cell Viability Assay (Promega, Cat #G9243), DMSO (Sigma, Cat #: D2660). The following equipment was used to conduct the assays: Bravo Liquid Handler (Agilent #G5523BA); and the following supplies: 96-well Non-Sterile Polypropylene V Bottom Plates (Corning, Cat #: 3363); 384-well Sterile White with Flat Clear Bottom Plates (Greiner, 781098); and PerkinElmer TopSeal-A Plus plate seal (Cat. #6050185).
(§2) Ba/F3 cell lines expressing either EGFR WT or mutant proteins were cultured in complete culture media at exponential growth phase for at least one week prior to assay. The different cell suspensions were counted and seeded into 384-well Sterile White Flat Clear Bottom Plates using a Bravo liquid handler, according to the appropriate cell number in 36 μl of media per well as follows: (a) Ba/F3-WT-EGFR: 2000 cells per well of a 384 well plate; (b) Ba/F3-G719S-EGFR: 2000 cells per well of a 384 well plate; (c) Ba/F3 G724S-EGFR: 1000 cells per well of a 384 well plate; (d) Ba/F3-L718Q-EGFR: 1000 cells per well of a 384 well plate; (e) Ba/F3-L718V-EGFR: 1000 cells per well of a 384 well plate; (f) Ba/F3-L858R/L718Q-EGFR: 1000 cells per well of a 384 well plate; (g) Ba/F3-L858R/L718V-EGFR: 1000 cells per well of a 384 well plate; (h) Ba/F3-del19/L792H-EGFR: 1000 cells per well of a 384 well plate; (i) Ba/F3-del19/G796S-EGFR: 1000 cells per well of a 384 well plate.
(§3) Compound I was solubilized in DMSO as 10 mM stock solutions. These were stored as aliquots at −80° C. and used only once after thawing. The highest concentration of Compound I in the final assay plate was 500 nM. To prepare the compound dilutions intermediate dilution plates were prepared using the Bravo liquid handler by performing 12-point ⅓-fold serial dilutions in DMSO to a final concentration of 250-fold the concentration in the final assay plate, followed by a 1/25 dilution into complete assay media. Compound dilutions in media were added to cells (final assay plate) by dispensing 4 μL into cells plated the same day in 36 μl of medium of media. Plates were placed in a 37° C., 5% CO2 incubator. Following 72 hours of incubation, plates were left to equilibrate at room temperature before the addition of 1:1 ratio of CTG 2.0 using the Bravo liquid handler. […]

[2] = system: Ba/F3 cells expressing EGFR_del19/G796S; settings: Mus musculus, BaF3; 72 hours; average ± standard deviation; read-out: Absolute EC50 (50% growth)
Experimental: as §1, §2, §3

[3] = system: Ba/F3 cells expressing EGFR_G719S; settings: Mus musculus, BaF3; 72 hours; average ± standard deviation; read-out: Absolute EC50 (50% growth)
Experimental: as §1, §2, §3

[4] = system: Ba/F3 cells expressing EGFR_L858R/L718V; settings: Mus musculus, BaF3; 72 hours; average ± standard deviation; read-out: Absolute EC50 (50% growth)
Experimental: as §1, §2, §3

[5] = system: Ba/F3 cells expressing EGFR_L718V; settings: Mus musculus, BaF3; 72 hours; average ± standard deviation; read-out: Absolute EC50 (50% growth)
Experimental: as §1, §2, §3

[6] = system: Ba/F3 cells expressing EGFR WT; settings: Mus musculus, BaF3; 72 hours; average ± standard deviation; read-out: Absolute EC50 (50% growth)
Experimental: as §1, §2, §3

[7] = system: Ba/F3 cells expressing EGFR_L718Q; settings: Mus musculus, BaF3; 72 hours; average ± standard deviation; read-out: Absolute EC50 (50% growth)
Experimental: as §1, §2, §3

[8] = system: Ba/F3 cells expressing EGFR_L858R/L718Q; settings: Mus musculus, BaF3; 72 hours; average ± standard deviation; read-out: Absolute EC50 (50% growth)
Experimental: as §1, §2, §3

[9] = system: Ba/F3 cells expressing EGFR_del19/L792H; settings: Mus musculus, BaF3, 72 h, read-out: Absolute EC50 (50% growth)
Experimental: as §1, §2, §3

SMILES: C=CC(=O)Nc1cc(Nc2cc(N3OCC[C@@H]3c3cc(F)cc(F)c3)ncn2)c(OC)cc1N1CCC(N2CCN(C3CC3)CC2)CC1 [Compound I, N-[2-[4-(4-cyclopropyl-1-piperazinyl)-1-piperidinyl]-5-[[6-[(3R)-3-(3,5-difluorophenyl)-2-isoxazolidinyl]-4-pyrimidinyl]amino]-4-methoxyphenyl]-2-propenamide]
- EC50 [1]: 1.4 ± 0.9 nM
- EC50 [2]: 1.1 ± 0.7 nM
- EC50 [3]: 0.7 ± 0.1 nM
- EC50 [4]: 0.2 ± 0.2 nM
- EC50 [5]: 0.9 ± 0.8 nM
- EC50 [6]: 6.6 ± 4.3 nM
- EC50 [7]: 27.1 ± 6.4 nM
- EC50 [8]: 0.8 ± 0.5 nM
- EC50 [9]: 2.5 ± 1.8 nM
